This is an account of results in ChEMBL document CHEMBL4402583, “Rational Substitution of ε-Lysine for α-Lysine Enhances the Cell and Membrane Selectivity of Pore-Forming Melittin” (J Med Chem, 2020).

What is called MIC50 is an inhibitory concentration at the 50% level, which refers to growth in some studies and to a panel of isolates in others. As a reminder, the MIC is the smallest concentration in the dilution series that meets the test's criterion for growth inhibition.

The subject of data set [1] is Acinetobacter baumannii. The data set is described as follows: Resistance index, ratio of MIC for Acinetobacter baumannii ATCC 19606 measured after 4 serial passages by broth microdilution method to MIC for Acinetobacter baumannii ATCC 19606 incubated for 24 hrs by broth microdilution method. As to conditions: ATCC 19606 = CIP 70.34 = JCM 6841. The data set is classed as functional, organism-based.

The subject of data set [2] is Lipid bilayer. The data set is described as follows: Induction of pore formation in negatively charged DOPE/DOPG large unilamellar vesicles assessed as calcein release at 0.39 to 50 uM measured for 60 mins by fluorescence based assay.
Data set [3] relates to Enterococcus faecalis. The data set is described as follows: Antibacterial activity against vancomycin-resistant Enterococcus faecalis ATCC 29212 assessed as log10 reduction in bacterial viability at 2 to 4 times MIC incubated for 30 mins in MHB medium followed by reincubation on MH agar plate for 24 to 48 hrs by time kill kinetics analysis. It counts as functional.
Data set [4] is described as follows: Stability of the compound in rabbit tear fluids assessed as parent compound remaining measured after 4 hrs by UPLC-MS analysis. The data set is classed as ADME, Oryctolagus cuniculus. As to conditions: tear fluid, read-out: Stability.
Data set [5] is described as follows: Cytotoxicity against HDF cells assessed as minimum cytotoxic concentration incubated for 24 hrs by Alexa Fluor […] phalloidin-FITC/Hoescht dye staining based fluorescence microscopic analysis. It counts as cell-based. The note with it: human, HDF cells (NHDF, human dermal fibroblasts).
For data set [6], the system named is Staphylococcus aureus. Nature of the data set: Antibacterial activity against methicillin-resistance Staphylococcus aureus assessed as reduction in bacterial growth incubated for 24 hrs by broth microdilution method. It counts as functional. (In general: Dilution methods test growth across graded concentrations, often in twofold steps.)
Data set [7] deals with Staphylococcus aureus. The data set is described as follows: Antibacterial activity against methicillin-sensitive Staphylococcus aureus assessed as reduction in bacterial growth incubated for 24 hrs by broth microdilution method. The data set is classed as functional.
The subject of data set [8] is Lipid bilayer. Nature of the data set: Binding affinity to zwitterionic DOPC/cholesterol large unilamellar vesicles assessed as transformation of peptide secondary structure to alpha-helical conformation by CD spectropolarimetry.
In data set [9] the test system is Enterococcus faecalis. Nature of the data set: Induction of pore formation in intact vancomycin-resistant Enterococcus faecalis 1002 cell membrane assessed as SG uptake at 2 times MIC by SG dye based fluorescence based assay. It counts as organism-based.
Data set [10] concerns Enterococcus. The data set is described as follows: Antibacterial activity against vancomycin-resistant Enterococcus assessed as reduction in bacterial growth incubated for 24 hrs by broth microdilution method. The data set is classed as functional.
For data set [11], the system named is NHDF. The data set is described as follows: Cytotoxicity against HDF cells assessed as reduction in metabolic activity at 16 ug/ml incubated for 24 hrs by MTS assay. It counts as ADME, cell-based. The note with it: human. A general note: Tetrazolium assays rely on reduction of a dye to a coloured formazan, in cell work by metabolically active cells.
The test system of data set [12] is Lipid bilayer. Nature of the data set: Induction of pore formation in zwitterionic DOPC/cholesterol large unilamellar vesicles assessed as calcein release at 0.39 to 50 uM measured for 60 mins by fluorescence based assay.
In data set [13] the test system is Candida albicans. The data set is described as follows: Antifungal activity against Candida albicans assessed as reduction in fungal growth incubated for 24 hrs by broth microdilution method. The data set is classed as functional.
Data set [14] has as its system Lipid bilayer. Nature of the data set: Induction of pore formation in negatively charged DOPE/DOPG large unilamellar vesicles assessed as ratio of peptide to lipid molar ratio that induces 50% calcein leakage measured for 60 mins by calcein dequenching based fluorescence based assay.
Data set [15] relates to Escherichia coli. The data set is described as follows: Antibacterial activity against Escherichia coli 1004 assessed as reduction in bacterial viability at 2 or 4 times MIC incubated up to 24 hrs in MHB medium followed by reincubation on MH agar plate for 24 to 48 hrs by time kill kinetics assay. It counts as functional, organism-based.
The subject of data set [16] is Enterococcus faecalis. The data set is described as follows: Antibacterial activity against vancomycin-resistant Enterococcus faecalis 1010 assessed as log10 reduction in bacterial viability at 2 to 4 times MIC incubated for 30 mins in MHB medium followed by reincubation on MH agar plate for 24 to 48 hrs by time kill kinetics analysis. It counts as functional.
The nature of data set [17]: Stability of the compound in rabbit tear fluid measured after 2 hrs by UPLC-MS analysis. The data set is classed as ADME, Oryctolagus cuniculus.
Data set [18] relates to Escherichia coli. Nature of the data set: Induction of pore formation in intact Escherichia coli 1004 cell membrane assessed as SG uptake at 2 times MIC by SG dye based fluorescence based assay. It counts as organism-based.
Data set [19] is described as follows: Cytotoxicity against HDF cells assessed as minimum cytotoxic concentration incubated for 24 hrs by MTS assay. The data set is classed as cell-based. The note with it: human, HDF cells (NHDF, human dermal fibroblasts).
Data set [20] has as its system Enterococcus faecalis. The data set is described as follows: Induction of pore formation in intact vancomycin-resistant Enterococcus faecalis ATCC 29212 cell membrane assessed as SG uptake at 2 times MIC by SG dye based fluorescence based assay. It counts as organism-based.
Data set [21] has as its system Enterococcus faecalis. Nature of the data set: Antibacterial activity against vancomycin-resistant Enterococcus faecalis 1002 assessed as log10 reduction in bacterial viability at 2 to 4 times MIC incubated for 30 mins in MHB medium followed by reincubation on MH agar plate for 24 to 48 hrs by time kill kinetics analysis. It counts as functional.
Data set [22] has as its system Enterobacteriaceae. The data set is described as follows: Antibacterial activity against Carbapenem-Resistant Enterobacteriaceae assessed as reduction in bacterial growth incubated for 24 hrs by broth microdilution method. The data set is classed as functional.
Data set [23] has as its system Pseudomonas aeruginosa. Nature of the data set: Antibacterial activity against Pseudomonas aeruginosa assessed as reduction in bacterial growth incubated for 24 hrs by broth microdilution method. The data set is classed as functional.
Data set [24] deals with Acinetobacter baumannii. Nature of the data set: Induction of pore formation in intact Acinetobacter baumannii 1001 cell membrane assessed as SG uptake at 2 times MIC by SG dye based fluorescence based assay. It counts as organism-based.
In data set [25] the test system is Acinetobacter baumannii. Nature of the data set: Antibacterial activity against multidrug-resistant Acinetobacter baumannii assessed as reduction in bacterial growth incubated for 24 hrs by broth microdilution method. The data set is classed as functional.
The subject of data set [26] is Acinetobacter baumannii. The data set is described as follows: Antibacterial activity against Acinetobacter baumannii 1001 assessed as reduction in bacterial viability at 2 or 4 times MIC incubated up to 24 hrs in MHB medium followed by reincubation on MH agar plate for 24 to 48 hrs by time kill kinetics assay. The data set is classed as functional, organism-based.

The subject of data set [27] is Klebsiella pneumoniae. Nature of the data set: Antibacterial activity against Klebsiella pneumoniae 1008 assessed as reduction in bacterial viability at 2 or 4 times MIC incubated up to 24 hrs in MHB medium followed by reincubation on MH agar plate for 24 to 48 hrs by time kill kinetics assay. The data set is classed as functional, organism-based.
The subject of data set [28] is Staphylococcus aureus. Nature of the data set: In vivo antibacterial activity against Staphylococcus aureus ATCC 29213 infected in C57BL/6 mouse assessed as reduction in bacterial burden by measuring log10 CFU/cornea at 0.3% administered topically as two times on day 1, four times on day 2 and two times on day 3 measured at 48 hrs post-final dose by 10 fold serial dilution method (reference value: 6.5 +/- 0.7 log10CFU). The data set is classed as functional.

Converted amounts (≈) assume the structure as drawn. The source made the active and inactive calls.

For the molecule GENTAMICIN, the Ratio in [1] was found to be 16.
Regarding `CC[C@H](C)[C@H](NC(=O)CN)C(=O)NCC(=O)N[C@@H](C)C(=O)N[C@H](C(=O)N[C@@H](CC(C)C)C(=O)N[C@@H](CCCCN)C(=O)N[C@H](C(=O)N[C@@H](CC(C)C)C(=O)N[C@H](C(=O)N[C@H](C(=O)NCC(=O)N[C@@H](CC(C)C)C(=O)N1CCC[C@H]1C(=O)N[C@@H](C)C(=O)N[C@@H](CC(C)C)C(=O)N[C@H](C(=O)N[C@@H](CO)C(=O)N[C@@H](Cc1c[nH]c2ccccc12)C(=O)N[C@H](C(=O)N[C@@H](CCCCN)C(=O)N[C@@H](CCCNC(=N)N)C(=O)N[C@@H](CCCCN)C(=O)N[C@@H](CCCNC(=N)N)C(=O)N[C@@H](CCC(N)=O)C(=O)N[C@@H](CCC(N)=O)C(N)=O)[C@@H](C)CC)[C@@H](C)CC)[C@@H](C)O)[C@@H](C)O)C(C)C)C(C)C` [MELITTIN], the outcome in data set [2], in data set [8], in data set [9], in [12], in [15] and in data set [18] was Active. Further, the outcome in [20], in data set [24], in data set [26] and in data set [27] was Active. Besides, the “log(activity)” value in [3], in [16] and in data set [21] was greater than 5 in each case. Also, the remaining at 4 h in data set [4] came out at 85.3%. Further, the MCC at 24 h in data set [5] and in data set [19] was greater than 8 µg/mL throughout. For the same molecule, the MIC50 in data set [6] is 4 µg/mL (≈ 1.41 µM); in data set [7], 4 µg/mL (≈ 1.41 µM); in [10], 4 µg/mL (≈ 1.41 µM); in [13], 4 µg/mL (≈ 1.41 µM); in data set [22] it was 8 µg/mL (≈ 2.81 µM); in [23] it was 16 µg/mL (≈ 5.62 µM). The MIC50 in data set [25] was found to be 4 µg/mL (≈ 1.41 µM). Moreover, the minimal inhibitory concentration (MIC) fell in the range of 0.5 to 8 µg/mL (≈ 0.176 to 2.81 µM) in [10], 4 to 8 µg/mL (≈ 1.41 to 2.81 µM) in data set [13], 8 to 32 µg/mL (≈ 2.81 to 11.2 µM) in data set [22] and 2 to 4 µg/mL (≈ 0.703 to 1.41 µM) in data set [25]. Moreover, the Activity result in [11] is given as “Toxic”. Besides, the Ratio in [14] was 0.04. Moreover, the Stability entry in data set [17] was “Stable”.
`COc1c(N2C[C@@H]3CCCN[C@@H]3C2)c(F)cc2c(=O)c(C(=O)O)cn(C3CC3)c12` [MOXIFLOXACIN]: the Activity in data set [28] worked out at 3.7 log10CFU.
